Laboratory results from PubChem BioAssay AID2060619 (Molecular Pharmacology Branch, DTP, NCI, 2025).

Test system: 323965-272-R-J2-PDC complex spheroid viability
Assay: Anticancer human tumor 323965-272-R-J2-PDC patient-derived pancreatic carcinoma cell line growth inhibition [CLK]
Details: for IC50: curve of first compound; for viability, T/C: stronger effect = lower value
Summary of the method: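 Patient-derived tumor cells grown as complex spheroids with HUVEC endothelial cells and mesenchymal stem cells, treated with drug combinations. Concentrations descend in half-log steps from near clinical Cmax, or from 10 microM if Cmax unknown.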

[1] = second compound 0.0316 µM, first compound 0.0316 µM
[2] = second compound 0.0316 µM, first compound 0.1 µM
[3] = second compound 0.0316 µM, first compound 0.316 µM
[4] = second compound 0.0316 µM, first compound 1 µM
[5] = second compound 0.0316 µM, first compound 3.16 µM
[6] = second compound 0.0316 µM, first compound 10 µM
[7] = second compound 0.1 µM, first compound 0.0316 µM
[8] = second compound 0.1 µM, first compound 0.1 µM
[9] = second compound 0.1 µM, first compound 0.316 µM
[10] = second compound 0.1 µM, first compound 1 µM
[11] = second compound 0.1 µM, first compound 3.16 µM
[12] = second compound 0.1 µM, first compound 10 µM
[13] = second compound 0.316 µM, first compound 0.0316 µM
[14] = second compound 0.316 µM, first compound 0.1 µM
[15] = second compound 0.316 µM, first compound 0.316 µM
[16] = second compound 0.316 µM, first compound 1 µM
[17] = second compound 0.316 µM, first compound 3.16 µM
[18] = second compound 0.316 µM, first compound 10 µM
[19] = second compound 1 µM, first compound 0.0316 µM
[20] = second compound 1 µM, first compound 0.1 µM
[21] = second compound 1 µM, first compound 0.316 µM
[22] = second compound 1 µM, first compound 1 µM
[23] = second compound 1 µM, first compound 3.16 µM
[24] = second compound 1 µM, first compound 10 µM
[25] = second compound 3.16 µM, first compound 0.0316 µM
[26] = second compound 3.16 µM, first compound 0.1 µM
[27] = second compound 3.16 µM, first compound 0.316 µM
[28] = second compound 3.16 µM, first compound 1 µM
[29] = second compound 3.16 µM, first compound 3.16 µM
[30] = second compound 3.16 µM, first compound 10 µM
[31] = second compound 10 µM, first compound 0.0316 µM
[32] = second compound 10 µM, first compound 0.1 µM
[33] = second compound 10 µM, first compound 0.316 µM
[34] = second compound 10 µM, first compound 1 µM
[35] = second compound 10 µM, first compound 3.16 µM
[36] = second compound 10 µM, first compound 10 µM
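Also: spheroids exposed to agents for seven days before readout.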
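For viability, T/C in this document: percent of DMSO vehicle control wells so 100% = untreated growth.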

`CC(=O)O[C@H]1C(=O)[C@@]2(C)[C@H]([C@H](OC(=O)c3ccccc3)[C@]3(O)C[C@H](OC(=O)[C@H](O)[C@@H](NC(=O)c4ccccc4)c4ccccc4)C(C)=C1C3(C)C)[C@]1(OC(C)=O)CO[C@@H]1C[C@@H]2O` + CN1CCN(c2cc(C(=O)Nc3cc4cc(-c5cnn(C)c5)ccc4cn3)ccn2)CC1 was tested, and the IC50 (second compound 0.0316 µM) was < 31.6 nM, the IC50 (second compound 0.1 µM) was < 31.6 nM and the IC50 (second compound 0.316 µM) was < 31.6 nM. The IC50 (second compound 1 µM) was < 31.6 nM, the IC50 (second compound 3.16 µM) was < 31.6 nM and the IC50 (second compound 10 µM) was < 31.6 nM. The viability, T/C [1] was 33.2%, the viability, T/C [2] was 34.3% and the viability, T/C [3] was 31.7%. For the same compound, the viability, T/C [4] was 33%, the viability, T/C [5] was 34.8% and the viability, T/C [6] was 30.4%. It also gave a viability, T/C [7] of 28.3%, a viability, T/C [8] of 28.1% and a viability, T/C [9] of 24.7%. It also gave a viability, T/C [10] of 25.9%, a viability, T/C [11] of 26.7% and a viability, T/C [12] of 28.5%. For the same compound, the viability, T/C [13] was 19.8%, the viability, T/C [14] was 19.3% and the viability, T/C [15] was 19%. It also gave a viability, T/C [16] of 19.5%, a viability, T/C [17] of 17.2% and a viability, T/C [18] of 16.9%. For the same compound, the viability, T/C [19] was 3.79%, the viability, T/C [20] was 3.19% and the viability, T/C [21] was 3.35%. For the same compound, the viability, T/C [22] was 2.94%, the viability, T/C [23] was 3.34% and the viability, T/C [24] was 3.64%. For the same compound, the viability, T/C [25] was 3.67%, the viability, T/C [26] was 6.44% and the viability, T/C [27] was 4.39%. The viability, T/C [28] was 4.7%, the viability, T/C [29] was 3.88% and the viability, T/C [30] was 5.16%. The viability, T/C [31] was 4.53%, the viability, T/C [32] was 4.6% and the viability, T/C [33] was 4.22%. The viability, T/C [34] was 3.5%, the viability, T/C [35] was 3.95% and the viability, T/C [36] was 3.79%.
In the case of `Nc1ccn(C2OC(CO)C(O)C2(F)F)c(=O)n1` (stereo unspecified) + CNC(=O)c1ccc(Nc2nc(OC3CCCC3)c3c(-c4ccc5nc(C)oc5c4)c[nH]c3n2)c(OC)c1, the IC50 (second compound 0.0316 µM) is reported as < 31.6 nM, the IC50 (second compound 0.1 µM) is reported as < 31.6 nM and the IC50 (second compound 0.316 µM) is reported as < 31.6 nM. For the same compound, the IC50 (second compound 1 µM) was < 31.6 nM, the IC50 (second compound 3.16 µM) was < 31.6 nM and the IC50 (second compound 10 µM) was < 31.6 nM. It also gave a viability, T/C [1] of 30.7%, a viability, T/C [2] of 33% and a viability, T/C [3] of 30.3%. For the same compound, the viability, T/C [4] was 27.9%, the viability, T/C [5] was 27.9% and the viability, T/C [6] was 30.4%. For the same compound, the viability, T/C [7] was 37.4%, the viability, T/C [8] was 33.3% and the viability, T/C [9] was 26%. It also gave a viability, T/C [10] of 32.3%, a viability, T/C [11] of 30.2% and a viability, T/C [12] of 32.1%. For the same compound, the viability, T/C [13] was 32.9%, the viability, T/C [14] was 27.8% and the viability, T/C [15] was 25.4%. The viability, T/C [16] was 27.8%, the viability, T/C [17] was 28.1% and the viability, T/C [18] was 25.2%. The viability, T/C [19] was 24.2%, the viability, T/C [20] was 21.4% and the viability, T/C [21] was 21.4%. It also gave a viability, T/C [22] of 18.9%, a viability, T/C [23] of 17.8% and a viability, T/C [24] of 18.9%. It also gave a viability, T/C [25] of 25.6%, a viability, T/C [26] of 22.8% and a viability, T/C [27] of 21.6%. It also gave a viability, T/C [28] of 21.2%, a viability, T/C [29] of 19.7% and a viability, T/C [30] of 18.2%. It also gave a viability, T/C [31] of 26.7%, a viability, T/C [32] of 23% and a viability, T/C [33] of 24.2%. It also gave a viability, T/C [34] of 21.1%, a viability, T/C [35] of 22% and a viability, T/C [36] of 15.8%.
In the case of `C=CC(=O)Nc1cc(Nc2nccc(-c3cn(C)c4ccccc34)n2)c(OC)cc1N(C)CCN(C)C` + CN1CCN(c2cc(C(=O)Nc3cc4cc(-c5cnn(C)c5)ccc4cn3)ccn2)CC1, the IC50 (second compound 0.0316 µM) is reported as > 300 nM, the IC50 (second compound 0.1 µM) is reported as > 300 nM and the IC50 (second compound 0.316 µM) is reported as < 0.949 nM. The IC50 (second compound 1 µM) was < 0.949 nM, the IC50 (second compound 3.16 µM) was < 0.949 nM and the IC50 (second compound 10 µM) was < 0.949 nM. The viability, T/C (second compound 0.0316 µM, first compound 0.000949 µM) was 92.1%, the viability, T/C (second compound 0.0316 µM, first compound 0.003 µM) was 86.8% and the viability, T/C (second compound 0.0316 µM, first compound 0.00949 µM) was 89.3%. It also gave a viability, T/C (second compound 0.0316 µM, first compound 0.03 µM) of 89.6%, a viability, T/C (second compound 0.0316 µM, first compound 0.0949 µM) of 82% and a viability, T/C (second compound 0.0316 µM, first compound 0.3 µM) of 75.8%. For the same compound, the viability, T/C (second compound 0.1 µM, first compound 0.000949 µM) was 73.2%, the viability, T/C (second compound 0.1 µM, first compound 0.003 µM) was 76.4% and the viability, T/C (second compound 0.1 µM, first compound 0.00949 µM) was 59.1%. It also gave a viability, T/C (second compound 0.1 µM, first compound 0.03 µM) of 61.8%, a viability, T/C (second compound 0.1 µM, first compound 0.0949 µM) of 52.2% and a viability, T/C (second compound 0.1 µM, first compound 0.3 µM) of 51.4%. It also gave a viability, T/C (second compound 0.316 µM, first compound 0.000949 µM) of 21.9%, a viability, T/C (second compound 0.316 µM, first compound 0.003 µM) of 26.8% and a viability, T/C (second compound 0.316 µM, first compound 0.00949 µM) of 21.4%. The viability, T/C (second compound 0.316 µM, first compound 0.03 µM) was 19.1%, the viability, T/C (second compound 0.316 µM, first compound 0.0949 µM) was 17.7% and the viability, T/C (second compound 0.316 µM, first compound 0.3 µM) was 17.3%. The viability, T/C (second compound 1 µM, first compound 0.000949 µM) was 3.35%, the viability, T/C (second compound 1 µM, first compound 0.003 µM) was 2.76% and the viability, T/C (second compound 1 µM, first compound 0.00949 µM) was 7.03%. It also gave a viability, T/C (second compound 1 µM, first compound 0.03 µM) of 2.91%, a viability, T/C (second compound 1 µM, first compound 0.0949 µM) of 2.48% and a viability, T/C (second compound 1 µM, first compound 0.3 µM) of 2.38%. It also gave a viability, T/C (second compound 3.16 µM, first compound 0.000949 µM) of 3.68%, a viability, T/C (second compound 3.16 µM, first compound 0.003 µM) of 3.94% and a viability, T/C (second compound 3.16 µM, first compound 0.00949 µM) of 5.04%. For the same compound, the viability, T/C (second compound 3.16 µM, first compound 0.03 µM) was 2.7%, the viability, T/C (second compound 3.16 µM, first compound 0.0949 µM) was 2.6% and the viability, T/C (second compound 3.16 µM, first compound 0.3 µM) was 3.13%. For the same compound, the viability, T/C (second compound 10 µM, first compound 0.000949 µM) was 4.03%, the viability, T/C (second compound 10 µM, first compound 0.003 µM) was 4.64% and the viability, T/C (second compound 10 µM, first compound 0.00949 µM) was 4.92%. For the same compound, the viability, T/C (second compound 10 µM, first compound 0.03 µM) was 3.05%, the viability, T/C (second compound 10 µM, first compound 0.0949 µM) was 2.71% and the viability, T/C (second compound 10 µM, first compound 0.3 µM) was 3.08%.
